According to publication PMC6161602, “Synthesis and characterisation of (Z)-styrylbenzene derivatives as potential selective anticancer agents” (Journal of Enzyme Inhibition and Medicinal Chemistry, 2018):
Like-named read-outs stand apart in the source and are kept apart here.

Legend:
L-02 normal liver cell = experiment: MTT cell growth inhibition assay, L-02 (normal); assay type: cell-based, human; details: 48 h incubation, L-02 normal cells
Excerpt: (§1) All human cell lines were used in this study. MGC-803 late-stage differentiation gastric cancer cell, A549 lung cancer cell, HepG2 hepatoma cell, AGS gastric cancer cell, BEL-7402 liver cancer cell, HCT-116 colorectal cancer cell, HeLa cervical cancer cell, SGC-7901 early differentiation gastric cancer cell, L-02 normal liver cell, MCF-7 breast cancer cell, and MCF-10A normal breast cell were initially purchased from American Type Culture Collection (ATCC, Manassas, VA, USA). RPMI-1640 media, Dulbecco’s modified Eagle’s medium (DMEM), and foetal bovine serum (FBS) were provided from Gibco Company (Grand Island, NY, USA). The cells were maintained in DMEM or RPMI-1640, supplemented with 10% FBS, 100 IU/mL penicillin and […] (Grand Island, NY, USA), and at 37 °C in a humidified atmosphere containing 5% CO2.
(§2) Cells were plated in 96-well plates at a density of 30–40% to ensure exponential growth throughout the experimental period, and then allowed to adhere for 1 day[21]. Next, the cells were treated with four serial concentrations (1, 10, 50, and 100 µM) of each compound. Taxol, CA-4, and CA-4P (phosphorylated form of CA-4) were used as positive controls. After 48 h incubation, MTT solution was added to each well at a final concentration of 2 mg/mL, and incubated for an additional 4 h. Next, the MTT solution was removed and 150 µL of dimethyl sulphoxide (DMSO)/well was added (Sigma-Aldrich, St Louis, MO, USA). The plates were shaken vigorously at RT to ensure complete solubilisation, and absorption at 492 nm was determined.
(§3) According to standard protocol, preliminary in vitro anti-proliferative activities of the synthesised compounds were evaluated by MTT assay, using nine human cancer cell lines (MGC-803, A549, HepG2, AGS, BEL-7402, HCT116, HeLa, SGC-7901, and MCF-7) and two normal human cell lines (L-02 and MCF-10A), and compared with those of CA-4, CA-4P, and taxol.

[1] = system: MCF-10A normal breast cell; experiment: MTT cell growth inhibition assay, MCF-10A (normal); assay type: cell-based, human; details: 48 h incubation, MCF-10A normal cells
Excerpt: as §1, §2, §3

AGS cells = experiment: MTT cell growth inhibition assay, AGS; assay type: cell-based, human; details: for IC50: MTT, 48 h incubation, AGS; for SI IC50 (L-02/AGS): selectivity index, IC50 (L-02)/IC50 (AGS)
Excerpt: as §1, §2, §3

[2] = system: HeLa cervical cancer cell; experiment: MTT cell growth inhibition assay, HeLa; assay type: cell-based, human; details: 48 h incubation
Excerpt: as §1, §2, §3

[3] = system: SGC-7901 early differentiation gastric cancer cell; experiment: MTT cell growth inhibition assay, SGC-7901; assay type: cell-based, human; details: 48 h incubation
Excerpt: as §1, §2, §3

MCF-7 breast cancer cell = experiment: MTT cell growth inhibition assay, MCF-7; assay type: cell-based, human; details: for IC50: MTT, 48 h incubation, MCF-7
Excerpt: as §1, §2, §3

HepG2 hepatoma cell = experiment: MTT cell growth inhibition assay, HepG-2; assay type: cell-based, human; details: MTT, 48 h incubation, HepG-2
Excerpt: as §1, §2, §3

BEL-7402 cells = experiment: MTT cell growth inhibition assay, BEL-7402; assay type: cell-based, human; details: for IC50: MTT, 48 h incubation, Bel-7402; for SI IC50 (L-02/BEL-7402): selectivity index, IC50 (L-02)/IC50 (BEL-7402)
Excerpt: as §1, §2, §3

A549 lung cancer cell = experiment: MTT cell growth inhibition assay, A549; assay type: cell-based, human; details: for IC50: MTT, 48 h incubation, A549
Excerpt: as §1, §2, §3

HCT116 cells = experiment: MTT cell growth inhibition assay, HCT116; assay type: cell-based, human; details: for IC50: MTT, 48 h incubation, HCT116
Excerpt: as §1, §2, §3

MGC-803 cells = experiment: MTT cell growth inhibition assay, MGC-803; assay type: cell-based, human; details: for IC50: MTT, 48 h incubation, MGC-803; for SI IC50 (L-02/MGC-803): selectivity index, IC50 (L-02)/IC50 (MGC-803)
Excerpt: as §1, §2, §3

[4] = selectivity index, IC50 (MCF-10A)/IC50 (MCF-7)
[5] = selectivity index, IC50 (L-02)/IC50 (HCT116)

| Compound | IC50 (L-02 normal liver cell; Homo sapiens) | melting point | IC50 ([1]; Homo sapiens) | IC50 (AGS cells; Homo sapiens) | IC50 ([2]; Homo sapiens) | IC50 ([3]; Homo sapiens) | IC50 (MCF-7 breast cancer cell; Homo sapiens, MCF7) | IC50 (HepG2 hepatoma cell; Homo sapiens, HepG2) | IC50 (BEL-7402 cells; Homo sapiens) | SI IC50 (L-02/BEL-7402) (BEL-7402 cells) | IC50 (A549 lung cancer cell; Homo sapiens) | IC50 (HCT116 cells; Homo sapiens, HCT-116) | SI IC50 (L-02/HCT116) (HCT116 cells; [5]) | IC50 (MGC-803 cells; Homo sapiens, MGC-803, 48 h) | also measured |
| --- | --- | --- | --- | --- | --- | --- | --- | --- | --- | --- | --- | --- | --- | --- | --- |
| COc1cc(/C(C#N)=C/c2cccs2)cc(OC)c1OC [Compound 7a, (Z)-3-(Thiophen-2-yl)-2-(3,4,5-trimethoxyphenyl)acrylonitrile] | 21.2 ± 10.8 µM | 102 to 104 °C | 55.8 ± 10.4 µM | 8.01 ± 1.65 µM | > 100 µM | > 100 µM | 15 ± 2 µM | > 100 µM | 1.82 ± 1.2 µM | >11.6 | > 100 µM | 16.6 ± 10.3 µM | >1.2 | 0.67 ± 0.22 µM | SI IC50 (L-02/AGS) (AGS cells): >2.6; SI IC50 (MCF-10A/MCF-7) (MCF-7 breast cancer cell; [4]): >3.7 |
| (Z)-3-(Naphthalen-1-yl)-2-(3,4,5-trimethoxyphenyl)acrylonitrile [Compound 7c] |  |  |  |  |  |  |  |  |  |  |  |  |  |  | IC50 (L-02 normal liver cell): 8.21 ± 0.051 µM; IC50 [1]: 1.03 ± 0.44 µM; IC50 (AGS cells): 3.51 ± 0.25 µM; IC50 [2]: > 100 µM; IC50 [3]: > 100 µM; IC50 (MCF-7 breast cancer cell): 2.83 ± 0.35 µM; IC50 (HepG2 hepatoma cell): > 100 µM; IC50 (BEL-7402 cells): 2.53 ± 0.12 µM; IC50 (A549 lung cancer cell): > 100 µM; IC50 (HCT116 cells): 4.58 ± 0.42 µM; IC50 (MGC-803 cells): 3.45 ± 2.11 µM |
| COc1cc(/C(C#N)=C/c2ccc(C(C)C)cc2)cc(OC)c1OC [Compound 6f, (Z)-3-(4-Isopropylphenyl)-2-(3,4,5-trimethoxyphenyl)acrylonitrile] | > 100 µM | 156 to 158 °C | 5.79 ± 0.48 µM | 1.33 ± 0.15 µM | > 100 µM | > 100 µM | 4.37 ± 2.8 µM | > 100 µM | 0.72 ± 0.01 µM | >138.8 | 36.62 ± 0.134 µM | 0.17 ± 0.1 µM | >588.2 | 7.21 ± 3.65 µM | SI IC50 (L-02/AGS) (AGS cells): >75.1; SI IC50 (MCF-10A/MCF-7) (MCF-7 breast cancer cell; [4]): >1.3; SI IC50 (L-02/A549) (A549 lung cancer cell; selectivity index, IC50 (L-02)/IC50 (A549)): >2.7; SI IC50 (L-02/MGC-803) (MGC-803 cells): >13.8 |
| COc1ccc(/C=C\c2cc(OC)c(OC)c(OC)c2)cc1OP(=O)(O)O [CA-4P, reference compound] |  |  |  |  |  |  |  |  |  |  |  |  | >4.5 |  | IC50 (L-02 normal liver cell): 2.67 ± 0.61 µM; IC50 [1]: 14.6 ± 1.36 µM; IC50 (AGS cells): 4.73 ± 0.22 µM; IC50 [2]: > 100 µM; IC50 [3]: 0.12 ± 0.03 µM; IC50 (MCF-7 breast cancer cell): 0.48 ± 0.25 µM; SI IC50 (MCF-10A/MCF-7) (MCF-7 breast cancer cell; [4]): >30.3; IC50 (HepG2 hepatoma cell): > 100 µM; IC50 (BEL-7402 cells): 5.45 ± 2.04 µM; IC50 (A549 lung cancer cell): > 100 µM; IC50 (HCT116 cells): 0.59 ± 0.22 µM; IC50 (MGC-803 cells): 0.03 ± 0.02 µM; SI IC50 (L-02/MGC-803) (MGC-803 cells): >89.0 |
| Cc1ccc(/C=C(\C#N)c2ccc(C)cc2)cc1 [Compound 13a, (Z)-2,3-Di-p-tolylacrylonitrile] | > 100 µM | 68 to 70 °C | > 100 µM | 27.9 ± 5.84 µM | > 100 µM | > 100 µM | > 100 µM | > 100 µM | > 100 µM |  | > 100 µM | > 100 µM |  | > 100 µM |  |
| Cc1ccc(/C(C#N)=C/c2ccccn2)cc1 [Compound 14b, (Z)-3-(Pyridin-2-yl)-2-(p-tolyl)acrylonitrile] | > 100 µM | 102 to 104 °C | > 100 µM | > 100 µM | > 100 µM | > 100 µM | > 100 µM | > 100 µM | > 100 µM |  | > 100 µM | > 100 µM |  | > 100 µM |  |
| CCc1ccc(/C=C(\C#N)c2cc(OC)c(OC)c(OC)c2)cc1 [Compound 6g, (Z)-3-(4-Ethylphenyl)-2-(3,4,5-trimethoxyphenyl)acrylonitrile] | > 100 µM | 76 to 78 °C | 1.19 ± 0.08 µM | 4.38 ± 2.04 µM | > 100 µM | > 100 µM | > 100 µM | > 100 µM | 0.65 ± 0.05 µM | >153.8 | > 100 µM | 0.34 ± 0.01 µM | >294.1 | 0.01 to 7.21 µM | SI IC50 (L-02/AGS) (AGS cells): >22.8; IC50 (MGC-803 cells): < 0.01 µM |
| Cc1ccc(/C(C#N)=C/c2ccccc2)cc1 [Compound 13d, (Z)-3-Phenyl-2-(p-tolyl)acrylonitrile] | > 100 µM | 145 to 147 °C | > 100 µM | > 100 µM | > 100 µM | > 100 µM | > 100 µM | > 100 µM | > 100 µM |  | > 100 µM | > 100 µM |  | 89.2 ± 3.2 µM |  |
| COc1ccc(/C=C(\C#N)c2cc(OC)c(OC)c(OC)c2)cc1 [Compound 6d, (Z)-3-(4-Methoxyphenyl)-2-(3,4,5-trimethoxyphenyl)acrylonitrile] | 4.15 ± 4.16 µM | 156 to 158 °C | 3.07 ± 0.18 µM | 0.05 ± 0.003 µM | > 100 µM | > 100 µM | 16.7 ± 4.77 µM | > 100 µM | 0.75 ± 0.21 µM | >5.5 | > 100 µM | 1.51 ± 0.05 µM | >2.7 | 6.18 ± 0.36 µM |  |
| CCc1ccc(/C=C(\C#N)c2ccc(C)cc2)cc1 [Compound 13b, (Z)-3-(4-Ethylphenyl)-2-(p-tolyl)acrylonitrile] | > 100 µM | 112 to 114 °C | 85.7 ± 3.12 µM | 26.5 ± 3.89 µM | > 100 µM | > 100 µM | 35 ± 14.8 µM | > 100 µM | > 100 µM |  | > 100 µM | > 100 µM |  | > 100 µM |  |
| COc1cc(/C=C(\C#N)c2ccc(C)cc2)cc(OC)c1OC [Compound 13c, (Z)-2-(p-Tolyl)-3-(3,4,5-trimethoxyphenyl)acrylonitrile] | > 100 µM | 135 to 137 °C | > 100 µM | 66.2 ± 3.65 µM | > 100 µM | > 100 µM | 33.9 ± 7.3 µM | > 100 µM | 77.3 ± 0.26 µM |  | > 100 µM | 79.2 ± 5.21 µM |  | > 100 µM |  |
| Cc1ccc(/C(C#N)=C/c2cccs2)cc1 [Compound 14a, (Z)-3-(Thiophen-2-yl)-2-(p-tolyl)acrylonitrile] | > 100 µM | 128 to 130 °C | > 100 µM | > 100 µM | > 100 µM | > 100 µM | > 100 µM | > 100 µM | > 100 µM |  | > 100 µM | > 100 µM |  | > 100 µM |  |
| COc1ccc(/C=C\c2cc(OC)c(OC)c(OC)c2)cc1O [CA-4, (Z)-2-methoxy-5–(3,4,5-trimethoxystyryl) phenol, reference compound] | 1.1 ± 0.03 µM |  | 3.23 ± 1.21 µM | 3.42 ± 0.03 µM | > 100 µM | 0.3 µM | 0.22 ± 0.09 µM | > 100 µM | 2.02 ± 0.03 µM |  | > 100 µM | 0.16 µM |  | 0.06 ± 0.02 µM | SI IC50 (MCF-10A/MCF-7) (MCF-7 breast cancer cell): >14.6; SI IC50 (L-02/HCT116) (HCT116 cells): >6.8 |
